Data as given in patent publication US20240190971A1, “USE OF an anti-P-selectin antibody” (NOVARTIS AG, priority 2018, published 2024).

Key:
[1] = target: JAK3 (Homo sapiens, UniProt P52333); details: at clinically relevant concentrations; cited from earlier work
[2] = system: broad panel of 26 kinases; details: tested at 200 nM; cited from earlier work
[3] = system: Gata1^low mice; details: mouse, in vivo
Experimental: Given the well described effects of inhibition of the TGF-β receptor 1 kinase on myelofibrosis in mouse models, the effects of the P-selectin inhibitor with those obtained with SB431542 are compared. In fact, contrary to inhibition of TGF-β signaling, inhibition of P-selectin has limited side effects and is therefore preferable to TGF-β inhibitors. […] Gata1^low mice are treated at 5-6 months of age (i.e. in the pre-MF stage) and analyzed at 10-12 months, an age when they are expected to have MF.
Gata1^low mice (8 mice per group) are treated with SB431542 according to the following scheme: • Group 1: Vehicle treated (2% v/v DMSO in H2O) (negative control) • Group 2: Mice receive SB431542 (60 μg/kg/day, cat no S4317-5GM, Sigma-Aldrich, St Louis, MO), as described (Spangrude G J et al, Stem Cells 2016; 34:67-82; Zingariello M et al, Blood 2013; […]
5-6 months old mice are treated daily for 5 days (Monday to Friday), then rested for 2 days and then treated again for 5 days. These treatments continue until the mice will reach 10-12 months of age. At that point they are sacrificed and analyzed for signs of progression to MF as described by Spangrude G J et al, Stem Cells 2016; 34:67-82; Zingariello M et al, Blood 2013; 121:3345-63. […]

[4] = target: T1, P-selectin (Homo sapiens, UniProt P16109); details: cited from earlier work
T1 sequence (P16109 42-830): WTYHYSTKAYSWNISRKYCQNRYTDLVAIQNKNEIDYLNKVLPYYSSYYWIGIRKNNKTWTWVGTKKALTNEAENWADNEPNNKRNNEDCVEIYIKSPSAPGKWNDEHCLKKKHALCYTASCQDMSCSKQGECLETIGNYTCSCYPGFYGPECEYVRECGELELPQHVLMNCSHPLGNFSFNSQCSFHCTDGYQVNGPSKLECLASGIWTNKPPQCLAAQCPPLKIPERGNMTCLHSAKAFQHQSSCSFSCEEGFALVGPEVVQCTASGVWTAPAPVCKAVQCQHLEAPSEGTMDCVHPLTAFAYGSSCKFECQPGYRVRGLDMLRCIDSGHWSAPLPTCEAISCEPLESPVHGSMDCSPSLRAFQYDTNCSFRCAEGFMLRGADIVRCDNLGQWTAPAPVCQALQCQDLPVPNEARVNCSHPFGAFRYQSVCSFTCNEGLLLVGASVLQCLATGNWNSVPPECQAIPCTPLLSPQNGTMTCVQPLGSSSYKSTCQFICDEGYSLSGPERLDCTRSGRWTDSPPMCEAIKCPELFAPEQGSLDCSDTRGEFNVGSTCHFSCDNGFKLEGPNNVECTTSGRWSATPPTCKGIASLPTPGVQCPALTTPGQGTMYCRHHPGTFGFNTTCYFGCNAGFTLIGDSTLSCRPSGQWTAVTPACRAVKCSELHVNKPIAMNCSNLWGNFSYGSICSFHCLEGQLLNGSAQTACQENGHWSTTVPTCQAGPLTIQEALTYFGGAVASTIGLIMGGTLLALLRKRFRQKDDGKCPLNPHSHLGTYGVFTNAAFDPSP

Sequence of JAK3 (P52333 whole entry): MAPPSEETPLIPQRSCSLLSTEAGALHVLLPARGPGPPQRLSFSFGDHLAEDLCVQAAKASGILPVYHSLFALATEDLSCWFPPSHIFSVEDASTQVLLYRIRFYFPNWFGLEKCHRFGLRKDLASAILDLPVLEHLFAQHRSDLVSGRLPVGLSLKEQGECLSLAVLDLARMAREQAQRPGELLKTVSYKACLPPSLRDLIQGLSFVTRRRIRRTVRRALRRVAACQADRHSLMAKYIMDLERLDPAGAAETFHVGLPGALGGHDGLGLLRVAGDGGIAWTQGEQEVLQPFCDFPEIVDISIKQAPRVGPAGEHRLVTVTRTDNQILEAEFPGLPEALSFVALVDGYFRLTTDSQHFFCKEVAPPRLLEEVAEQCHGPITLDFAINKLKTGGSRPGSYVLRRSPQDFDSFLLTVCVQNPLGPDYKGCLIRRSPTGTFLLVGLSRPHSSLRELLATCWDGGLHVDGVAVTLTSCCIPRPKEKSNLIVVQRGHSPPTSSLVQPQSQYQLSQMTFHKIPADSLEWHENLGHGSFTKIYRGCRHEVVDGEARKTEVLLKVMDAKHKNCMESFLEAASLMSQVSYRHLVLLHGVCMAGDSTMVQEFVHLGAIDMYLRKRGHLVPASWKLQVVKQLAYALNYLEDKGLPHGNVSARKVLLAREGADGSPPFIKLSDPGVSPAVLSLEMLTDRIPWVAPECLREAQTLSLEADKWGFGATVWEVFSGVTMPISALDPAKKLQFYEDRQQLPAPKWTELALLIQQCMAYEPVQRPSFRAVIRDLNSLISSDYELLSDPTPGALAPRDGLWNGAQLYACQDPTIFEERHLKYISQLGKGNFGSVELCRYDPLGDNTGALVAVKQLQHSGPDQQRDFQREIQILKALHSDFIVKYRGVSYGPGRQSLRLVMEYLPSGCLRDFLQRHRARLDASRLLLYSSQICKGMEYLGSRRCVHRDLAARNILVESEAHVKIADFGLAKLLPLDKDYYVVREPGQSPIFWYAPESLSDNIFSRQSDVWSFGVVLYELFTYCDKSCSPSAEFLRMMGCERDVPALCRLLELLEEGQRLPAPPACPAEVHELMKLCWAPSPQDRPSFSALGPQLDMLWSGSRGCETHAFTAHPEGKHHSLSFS

## N#CC[C@H](C1CCCC1)n1cc(-c2ncnc3[nH]ccc23)cn1 [ruxolitinib, (R)-3-(4-(7H-pyrrolo[2,3-d]pyrimidin-4-yl)-1H-pyrazol-1-yl)-3-cyclopentylpropanenitrile]
[1]
  inhibition of JAK3: does not inhibit
[2]
  inhibition: < 30%

## NC(=O)c1ccc(-c2nc(-c3ccc4c(c3)OCO4)c(-c3ccccn3)[nH]2)cc1 [SB431542]
[3]
  toxicity profile: poor toxicity profile (increased osteosclerosis)

B1: crizanlizumab: humanized monoclonal antibody targeted towards P-selectin, blocks its interaction with PSGL-1 (antibody)
heavy: QVQLVQSGAEVKKPGASVKVSCKVSGYTFTSYDINWVRQAPGKGLEWMGWIYPGDGSIKYNEKFKGRVTMTVDKSTDTAYMELSSLRSEDTAVYYCARRGEYGNYEGAMDYWGQGTLVTVSSASTKGPSVFPLAPCSRSTSESTAALGCLVKDYFPEPVTVSWNSGALTSGVHTFPAVLQSSGLYSLSSVVTVTSSNFGTQTYTCNVDHKPSNTKVDKTVERKCCVECPPCPAPPVAGPSVFLFPPKPKDTLMISRTPEVTCVVVDVSHEDPEVQFNWYVDGMEVHNAKTKPREEQFNSTFRVVSVLTVVHQDWLNGKEYKCAVSNKGLPAPIEKTISKTKGQPREPQVYTLPPSREEMTKNQVSLTCLVKGFYPSDIAVEWESNGQPENNYKTTPPMLDSDGSFFLYSKLTVDKSRWQQGNVFSCSVMHEALHNHYTQKSLSLSPGK
light: DIQMTQSPSSLSASVGDRVTITCKASQSVDYDGHSYMNWYQQKPGKAPKLLIYAASNLESGVPSRFSGSGSGTDFTLTISSLQPEDFATYYCQQSDENPLTFGGGTKVEIKRTVAAPSVFIFPPSDEQLKSGTASVVCLLNNFYPREAKVQWKVDNALQSGNSQESVTEQDSKDSTYSLSSTLTLSKADYEKHKVYACEVTHQGLSSPVTKSFNRGEC
[4]
  blocking of P-selectin interaction with PSGL-1: blocks its interaction with P-selectin glycoprotein ligand 1 (PSGL-1)
  dissociation of already formed P-selectin/PSGL-1 complexes: dissociates P-selectin/PSLG-1 complexes that have already formed
